Tests used:
ORYSAT (Rice, Tebonnet) [1] = test: Postemergence herbicidal evaluation; type: in vivo, Oryza sativa, (L.) Tebonnet
Outline: (§1)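 Seedlings grown for about two weeks were sprayed postemergence and then kept under standard greenhouse care. Injury was rated visually 4–5 weeks after treatment on a 0–9 scale against untreated controls, and ratings from repeat tests were averaged.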

[2] = test system: ECHCG (Echinochloa crus-galli); test: Preemergence herbicidal evaluation; type: in vivo, (L.) Beau; settings: preemergence, rated 4-5 weeks after treatment
Outline: (§2)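 Seeds mixed with potting soil were planted atop about one inch of soil, then sprayed with test compound in aqueous acetone. Cups were kept in the greenhouse and rated visually 4–5 weeks after treatment on a 0–9 scale against untreated control.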

SETVI (Setaria viridis) [3] = test: Preemergence herbicidal evaluation; type: in vivo, (L.) Beau; settings: preemergence, rated 4-5 weeks after treatment
Outline: as §2

[4] = test system: ECHCG (Echinochloa crus-galli); test: Postemergence herbicidal evaluation; type: in vivo, (L.) Beau
Outline: as §1

[5] = test system: IPOHE (Ipomoea hederacea); test: Preemergence herbicidal evaluation; type: in vivo, (L.) Jacq.; settings: preemergence, rated 4-5 weeks after treatment
ORYSAT (Rice, Tebonnet) [6] = test: Preemergence herbicidal evaluation; type: in vivo, Oryza sativa, (L.) Tebonnet; settings: preemergence, rated 4-5 weeks after treatment
[7] = test system: ABUTH (Abutilon theophrasti); test: Postemergence herbicidal evaluation; type: in vivo, Medic.
Outline: as §1

CYPIR (Cyperus iria) = test: Flooded paddy, preemergence weed control; type: in vivo; settings: rated 3-4 weeks after treatment, 0-9 rating scale
Outline: (§3)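 Preemergence, flooded: propagules planted at 0.5 cm depth in silt loam, water level maintained at 1.5 to 3 cm over soil, containers kept on greenhouse benches. Activity scored 0-9 by eye relative to a control plant.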

[8] = test system: SAGPY (Sagittaria pygmaea); test: Flooded paddy, preemergence weed control; type: in vivo, L.; settings: rated 3-4 weeks after treatment, 0-9 rating scale
Outline: as §3

[9] = test system: ECHORC (Echinochloa oryzoides); test: Flooded paddy, preemergence weed control; type: in vivo, Echinochloa oryzoides (Ard.) Fritsch.; settings: rated 3-4 weeks after treatment, 0-9 rating scale
Outline: as §3

[10] = test system: MOOVA (Monochoria vaginalis); test: Flooded paddy, preemergence weed control; type: in vivo, Presl.; settings: rated 3-4 weeks after treatment, 0-9 rating scale
Outline: as §3

[11] = test system: CASOB (Cassia obtusifolia); test: Preemergence herbicidal evaluation; type: in vivo, L.; settings: preemergence, rated 4-5 weeks after treatment
Outline: as §2

[12] = test system: AMBEL (Ambrosia artemisifolia); test: Preemergence herbicidal evaluation; type: in vivo, L.; settings: preemergence, rated 4-5 weeks after treatment
Outline: as §2

[13] = test system: CHEAL (Chenopodium album); test: Preemergence herbicidal evaluation; type: in vivo, L.; settings: preemergence, rated 4-5 weeks after treatment
Outline: as §2

ZEAMX (Corn, Field) = test: Postemergence herbicidal evaluation; type: in vivo, Zea mays, L.
Outline: as §1

[14] = test system: IPOHE (Ipomoea hederacea); test: Postemergence herbicidal evaluation; type: in vivo, (L.) Jacq.
Outline: as §1

ORYSAT (Rice, Tebonnet) [15] = test: Flooded paddy, post-transplant rice tolerance; type: in vivo, Oryza sativa, (L.) Tebonnet; settings: flooded paddy, post-transplant rice, rated 3-4 weeks after treatment, 0-9 rating scale
Outline: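 Two ten-day-old seedlings were transplanted into silt loam, flooded and held at 1.5 to 3 cm water above the soil before herbicide treatment. Pots stayed in the greenhouse at that water level. Injury was scored visually on a 0-9 scale versus untreated control.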

[16] = test system: GLXMAW (Soybean, Williams); test: Postemergence herbicidal evaluation; type: in vivo, Glycine max, (L.) Merr. cv Williams
Outline: as §1

SETVI (Setaria viridis) [17] = test: Postemergence herbicidal evaluation; type: in vivo, (L.) Beau
Outline: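 Seedlings about two weeks old were sprayed with compound in 50/50 acetone/water plus 0.5% TWEEN 20, at the equivalent of about 0.0040 to 1.000 kg/ha. Plants were kept in a greenhouse and visually rated 0-9 against a control four to five weeks after treatment. Repeat tests were averaged.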

GALAP (Galium aparine) = test: Postemergence herbicidal evaluation; type: in vivo
Outline: as §1

Structure (SMILES): Cc1nnc(-c2nsc3ccc(-n4c(=O)cc(C(F)(F)F)n(C)c4=O)cc23)s1 [Compound 17, 1-methyl-3-[3-(5-methyl-1,3,4-thiadiazol-2-yl)-1,2-benzisothiazol-5-yl]-6-(trifluoromethyl)uracil]
- Postemergence herbicidal rating, ORYSAT (ORYSAT (Rice, Tebonnet) [1]; rate 0.0320 kg/ha): 1.0
- Postemergence herbicidal rating, ORYSAT (ORYSAT (Rice, Tebonnet) [1]; rate 0.0620 kg/ha): 1.5
- Postemergence herbicidal rating, ORYSAT (ORYSAT (Rice, Tebonnet) [1]; rate 0.1250 kg/ha): 2.0
- Postemergence herbicidal rating, ORYSAT (ORYSAT (Rice, Tebonnet) [1]; rate 0.2500 kg/ha): 7.5
- ECHCG preemergence herbicidal rating ([2]; Rate 0.0620 kg/ha): 0.0
- ECHCG preemergence herbicidal rating ([2]; Rate 0.1250 kg/ha): 1.0
- ECHCG preemergence herbicidal rating ([2]; Rate 0.2500 kg/ha): 5.0
- SETVI preemergence herbicidal rating (SETVI (Setaria viridis) [3]; Rate 0.0620 kg/ha): 0.0
- SETVI preemergence herbicidal rating (SETVI (Setaria viridis) [3]; Rate 0.1250 kg/ha): 9.0
- SETVI preemergence herbicidal rating (SETVI (Setaria viridis) [3]; Rate 0.2500 kg/ha): 9.0
- Postemergence herbicidal rating, ECHCG ([4]; rate 0.0320 kg/ha): 0.0
- Postemergence herbicidal rating, ECHCG ([4]; rate 0.0620 kg/ha): 0.0
- Postemergence herbicidal rating, ECHCG ([4]; rate 0.1250 kg/ha): 0.0
- Postemergence herbicidal rating, ECHCG ([4]; rate 0.2500 kg/ha): 0.0
- IPOHE preemergence herbicidal rating ([5]; Rate 0.0620 kg/ha): 0.0
- IPOHE preemergence herbicidal rating ([5]; Rate 0.1250 kg/ha): 2.0
- IPOHE preemergence herbicidal rating ([5]; Rate 0.2500 kg/ha): 9.0
- ORYSAT preemergence herbicidal rating (ORYSAT (Rice, Tebonnet) [6]; Rate 0.0620 kg/ha): 0.0
- ORYSAT preemergence herbicidal rating (ORYSAT (Rice, Tebonnet) [6]; Rate 0.1250 kg/ha): 0.0
- ORYSAT preemergence herbicidal rating (ORYSAT (Rice, Tebonnet) [6]; Rate 0.2500 kg/ha): 1.0
- Postemergence herbicidal rating, ABUTH ([7]; rate 0.0320 kg/ha): 9.0
- Postemergence herbicidal rating, ABUTH ([7]; rate 0.0620 kg/ha): 9.0
- Postemergence herbicidal rating, ABUTH ([7]; rate 0.1250 kg/ha): 9.0
- Postemergence herbicidal rating, ABUTH ([7]; rate 0.2500 kg/ha): 9.0
- herbicidal rating, CYPIR (CYPIR (Cyperus iria); rate 0.0080 kg/ha): 0.0
- herbicidal rating, CYPIR (CYPIR (Cyperus iria); rate 0.0320 kg/ha): 3.5
- herbicidal rating, CYPIR (CYPIR (Cyperus iria); rate 0.1250 kg/ha): 7.0
- herbicidal rating, SAGPY ([8]; rate 0.0080 kg/ha): 0.0
- herbicidal rating, SAGPY ([8]; rate 0.0320 kg/ha): 2.5
- herbicidal rating, SAGPY ([8]; rate 0.1250 kg/ha): 5.5
- herbicidal rating, ECHORC ([9]; rate 0.0080 kg/ha): 0.0
- herbicidal rating, ECHORC ([9]; rate 0.0320 kg/ha): 3.0
- herbicidal rating, ECHORC ([9]; rate 0.1250 kg/ha): 6.0
- herbicidal rating, MOOVA ([10]; rate 0.0080 kg/ha): 6.0
- herbicidal rating, MOOVA ([10]; rate 0.0320 kg/ha): 9.0
- herbicidal rating, MOOVA ([10]; rate 0.1250 kg/ha): 9.0
- CASOB preemergence herbicidal rating ([11]; Rate 0.0620 kg/ha): 0.0
- CASOB preemergence herbicidal rating ([11]; Rate 0.1250 kg/ha): 0.0
- CASOB preemergence herbicidal rating ([11]; Rate 0.2500 kg/ha): 3.0
- AMBEL preemergence herbicidal rating ([12]; Rate 0.0620 kg/ha): 4.0
- AMBEL preemergence herbicidal rating ([12]; Rate 0.1250 kg/ha): 5.0
- AMBEL preemergence herbicidal rating ([12]; Rate 0.2500 kg/ha): 9.0
- CHEAL preemergence herbicidal rating ([13]; Rate 0.0620 kg/ha): 9.0
- CHEAL preemergence herbicidal rating ([13]; Rate 0.1250 kg/ha): 9.0
- CHEAL preemergence herbicidal rating ([13]; Rate 0.2500 kg/ha): 9.0
- Postemergence herbicidal rating, ZEAMX (ZEAMX (Corn, Field); rate 0.0320 kg/ha): 4.0
- Postemergence herbicidal rating, ZEAMX (ZEAMX (Corn, Field); rate 0.0620 kg/ha): 4.0
- Postemergence herbicidal rating, ZEAMX (ZEAMX (Corn, Field); rate 0.1250 kg/ha): 4.0
- Postemergence herbicidal rating, ZEAMX (ZEAMX (Corn, Field); rate 0.2500 kg/ha): 5.0
- Postemergence herbicidal rating, IPOHE ([14]; rate 0.0320 kg/ha): 9.0
- Postemergence herbicidal rating, IPOHE ([14]; rate 0.0620 kg/ha): 9.0
- Postemergence herbicidal rating, IPOHE ([14]; rate 0.1250 kg/ha): 9.0
- Postemergence herbicidal rating, IPOHE ([14]; rate 0.2500 kg/ha): 9.0
- herbicidal rating, ORYSAT (rice tolerance) (ORYSAT (Rice, Tebonnet) [15]; rate 0.0080 kg/ha): 0.0
- herbicidal rating, ORYSAT (rice tolerance) (ORYSAT (Rice, Tebonnet) [15]; rate 0.0320 kg/ha): 2.5
- herbicidal rating, ORYSAT (rice tolerance) (ORYSAT (Rice, Tebonnet) [15]; rate 0.1250 kg/ha): 4.5
- Postemergence herbicidal rating, GLXMAW ([16]; rate 0.0320 kg/ha): 5.0
- Postemergence herbicidal rating, GLXMAW ([16]; rate 0.0620 kg/ha): 6.5
- Postemergence herbicidal rating, GLXMAW ([16]; rate 0.1250 kg/ha): 8.0
- Postemergence herbicidal rating, GLXMAW ([16]; rate 0.2500 kg/ha): 8.5
- Postemergence herbicidal rating, SETVI (SETVI (Setaria viridis) [17]; rate 0.0320 kg/ha): 0.0
- Postemergence herbicidal rating, SETVI (SETVI (Setaria viridis) [17]; rate 0.0620 kg/ha): 0.0
- Postemergence herbicidal rating, SETVI (SETVI (Setaria viridis) [17]; rate 0.1250 kg/ha): 3.0
- Postemergence herbicidal rating, SETVI (SETVI (Setaria viridis) [17]; rate 0.2500 kg/ha): 7.0
- Postemergence herbicidal rating, GALAP (GALAP (Galium aparine); rate 0.0320 kg/ha): 1.0
- Postemergence herbicidal rating, GALAP (GALAP (Galium aparine); rate 0.0620 kg/ha): 1.0
- Postemergence herbicidal rating, GALAP (GALAP (Galium aparine); rate 0.1250 kg/ha): 6.0
- Postemergence herbicidal rating, GALAP (GALAP (Galium aparine); rate 0.2500 kg/ha): 6.0
